Measurements as given in patent US20160037772A1, “INCREASING ABIOTIC STRESS TOLERANCE IN PLANTS” (priority 2014, published 2016).

Assays:
tomato plants = experiment: Field trial in tomato plants under heat, light and water stress (sunburn, yield, soluble solids); format: in vivo; conditions: 6 applications
Protocol: The study was conducted on tomatoes in a commercial growing field in Botalcura, Talca, Chile. […]
For each two meters plot, plants were harvested during six test runs. The fruit were first evaluated visually: fruits with red color as adequate for industrial processing, fruits with green color as inadequate and inappropriate for industrial processing and fruits damaged by the sun as disposable. […]

apple trees = experiment: Field trial in apple trees under heat, light and water stress (sunburn, fruit size, yield); format: in vivo; conditions: apples
Protocol: Field trials were conducted in commercial fields and orchards in Chile during the 2011-12 and 2012-13 growing seasons. The results were evaluated by measuring specific fruit parameters affected by abiotic stress including fruit diameter, fruit number, and amount of damage from heat or sunburn. The plants evaluated were apples and tomatoes. The plants in the trials received a conventional application of pesticides, under normal application conditions. The heat and light stress were considered important from the beginning of fruit development. High temperatures ranged between 30-35° C. ambient temperature measured by conventional methods in the shade from December to harvest.
Foliage and fruit were evaluated before and after treatments at regular intervals for signs of phytotoxicity. […] Furthermore, no signs of uncontrolled disease incidence was detected.
SUNCROPS, SUNCROPS PLUS, SCREEN DUO, and ECLIPSE are commercial treatments which are used in the management of abiotic stress. Kaolins and calcium carbonates reduce stress by reflecting the ultraviolet, visible and infrared rays, reducing the impact of excessive heat and light in photosynthesis and other essential plant cellular processes. The dicarboxylic acids, such as the azalaic acid in SUNCROPS PLUS, physiologically act by interacting on lipo-oxygenation processes and production of reactive oxygen species. (Greenberg et al. “The lipid whisker model of the structure of oxidized cell membranes.” J. Biol. Chem. 283, 2385-96, 2008)
The apple trees received six applications of each formulation at the dosages indicated in the “Dosage” column of Table 1. Tomato plants received biweekly treatments from fruit formation to fruit harvest (a total of 6 applications).
The different stages of fruit development correspond to (1) cell division (2) pit hardening (stone fruits only) (3) cell expansion and (4) fruit ripening. The start of the tests was done during the cell division phase. This phase corresponds to the period with increased susceptibility to damage from high temperatures, and can be correlated with increase in fruits having reduced size and decrease in the number of fruits per plant as a consequence of the abiotic stress due to high temperatures.
Early season heat, light and/or water stress can prevent cell division that occurs during phase (1) of the development of apple fruits.
Testing with apples was conducted in Rancagua, Sixth Region; Chile. The tree fruit load was standardized at a value of about 220 fruits per tree; ±3%, thus eliminating the variability generated by different loads of fruit on the trees. To assess damage from sunburn related to heat and water stress, 100% of the apples were harvested from the tree in each test unit and were classified according to the following scheme shown in Table 2.
Table 2. Classification scheme based on visual evaluation of the fruit • 0 No visible presence of sunburn • 1 Presence of slight yellowing of the skin (<7% of the surface of the fruit); exportable commercial fruit. • 2 Presence of strong yellowing of the skin (>7% of the surface of the fruit); exportable commercial fruit. • 3 Presence of moderate sunburn skin, no commercial fruit, suitable only for juice or related industry. • 4 Presence of significant sunburn skin, no harvestable fruit unmarketable.
The variables measured were: fruit diameter (mm), percentage of sunburn (number of fruits belonging to grades 1 or 2), size of the fruit (measured as weight in grams). The total fruit yield of the tree and the commercial yield (amount of commercial grade fruits, grades 1 or 2) was also measured.

Compound: O=CCCCCCCCC(=O)O [ONA, 9-Oxononanoic acid]
- Soluble solids (tomato plants): 6.4 °Brix
- Fruit diameter (apple trees; Rancagua, Chile, six applications at Table 1 dosage, about 220 fruits per tree): 40.63 mm
- Effectiveness in protection of fruit compared with commercial treatments (apple trees; cell division stage): more effective than commercial treatments
- Yield commercial (apple trees; commercial grade fruits (grades 1 or 2), six applications): 49.7 kg/tree
- Size (apple trees; fruit weight, six applications): 146 g/apple
- Yield total (apple trees; six applications): 53.9 kg/tree
- Percent fruit of grades 1 or 2 (apple trees; visual sunburn grading scheme of Table 2, six applications): 88.25%
